According to patent US20120252827A1, “COMBINATION OF THERAPY COMPRISING ZD6474 AND A TAXANE” (priority 2001, published 2012):

System: GEO human colon cancer xenografts
Assay: GEO human colon cancer xenograft model: ZD6474 dosed intraperitoneally
Assay type: in vivo, BALB/c athymic (nu+/nu+) mice
Conditions: GEO xenografts s.c. in mice; for Average time (days) from day 28 to reach an average tumour volume of 2 cm^3 (approximately 10% of mouse body weight): paclitaxel 400 μg/mouse i.p., ZD6474 100 mg/kg/day i.p.; for Average tumour volume on day 28 after tumour cell injection: treatment from day 7, paclitaxel 400 μg/mouse i.p. days 7, 14, 21, 28, ZD6474 100 mg/kg/day i.p. days 7-11, 14-18, 21-25, 28-32
Protocol: a) Geo Human Colon Cancer Xenograft Model: ZD6474 Dosed Intraperitoneally
Female BALB/c athymic (nu+/nu+) mice 4-6 weeks of age were injected subcutaneously (s.c.) with GEO human colon cancer cells (10^7 cells resuspended in 200 μl Matrigel) on day 0. Treatment was initiated on day 7 after s.c. implantation of GEO cells when the average tumour volume was 0.25 (+0.05) cm^3. 10 mice per group were treated either with intraperitoneal (i.p.) paclitaxel (400 μg/mouse) on days 7, 14, 21 and 28, or with ZD6474 (100 mg/kg/day i.p. suspended in a 1% (v/v) solution of polyoxyethylene (20) sorbitan mono-oleate in deionised water) on days 7-11, 14-18, 21-25 and 28-32, or with a combination of both agents. In the case of combination treatments, where mice received both agents on the same day, paclitaxel was given 10-15 minutes before ZD6474. Tumour size was measured using the formula π/6×larger diameter×(smaller diameter)^2.
The average tumour volume on day 28 following tumour cell injection in control mice, 1.95 (+0.15) cm^3, was approximately 10% of nude mouse body weight and mice in this group were sacrificed at this time. […] Statistical evaluations of time to reach a tumour volume of 2 cm^3 has been done using the Mantel-Cox logrank test with the following results: ZD6474 (100 mg/kg) versus control (p=0.001); paclitaxel+ZD6474 (100 mg/kg) versus control (p=0.0001); paclitaxel+ZD6474 (100 mg/kg) versus paclitaxel (p=0.001); paclitaxel+ZD6474 (100 mg/kg) versus ZD6474 (100 mg/kg) (p=0.01).

Row | SMILES | Average time (days) from day 28 to reach an average tumour volume of 2 cm^3 (approximately 10% of mouse body weight) | Average tumour volume on day 28 after tumour cell injection
1 | CC(=O)O[C@H]1C(=O)[C@@]2(C)[C@H]([C@H](OC(=O)c3ccccc3)[C@]3(O)C[C@H](OC(=O)[C@H](O)[C@@H](NC(=O)c4ccccc4)c4ccccc4)C(C)=C1C3(C)C)[C@]1(OC(C)=O)CO[C@@H]1C[C@@H]2O [Paclitaxel, paclitaxel] | 14 (±3) days | 0.95 (±0.1) cm^3
2 | COc1cc2c(Nc3ccc(Br)cc3F)ncnc2cc1OCC1CCN(C)CC1 [ZD6474, 4-(4-bromo-2-fluoroanilino)-6-methoxy-7-(1-methylpiperidin-4-ylmethoxy)quinazoline] | 29 (±2) days | 0.1 (±0.05) cm^3
